The values that follow come from paper PMC8171317, “Total synthesis, isolation, surfactant properties, and biological evaluation of ananatosides and related macrodilactone-containing rhamnolipids” (Chemical Science, 2021).

A short description of data set [1]: Cytotoxicity, resazurin assay, summary over cell lines. The note with it: human, DLD-1 and WS1 cells (summary over the three lines); A549, DLD-1 and WS1; read-out: Cytotoxicity IC50 against human cell lines. It is filed as cell-based. Here is the method: (§1) As the anticancer potential of microbial rhamnolipids has previously been reported,[16] we next sought to evaluate the in vitro cytotoxicity of our synthetic and natural glycolipids 1–6 against cancerous cell lines, i.e., human lung carcinoma (A549) and colorectal adenocarcinoma (DLD-1). The compounds were also tested against human normal skin fibroblasts (WS1) to estimate their selectivity towards cancer cells.
(§2) 4. Experimental Procedures for Biological Evaluation and Surfactant Properties. […]
(§3) Cell Culture. Human lung carcinoma (A549), human colorectal adenocarcinoma (DLD-1), and human normal skin fibroblasts (WS1) cell lines were obtained from the American Type Culture Collection (ATCC). All cell lines were cultured in minimum essential medium containing Earle’s […]
(§4) salts and L-glutamine (Mediatech Cellgro, VA), to which were added 10% foetal bovine serum (Hyclone), vitamins (1×), penicillin (100 IU•mL-1), streptomycin (100 µg•mL−1), essential amino acids (1×), and sodium pyruvate (1×) (Mediatech Cellgro, VA). Cells were kept at 37 °C in a humidified environment containing 5% CO2.
(§5) Cytotoxicity Assay. Exponentially growing A549, DLD-1 or WS1 cells were plated in 96-well microplates (Costar, Corning Inc.) at a density of 5 × 10^3 cells per well in 100 µL of culture medium and were allowed to adhere for 16 h prior treatment. Increasing concentrations of each compound in biotech DMSO (Sigma-Aldrich) were then added (100 µL per well) and the cells were incubated for 48 h. The final concentration of DMSO in the culture medium was maintained at 0.5% (v/v) to avoid solvent toxicity. Cytotoxicity was assessed using resazurin9 on an automated 96-well Fluoroskan Ascent F1TM plate reader (Labsystems) using excitation and emission wavelengths of 530 and 590 nm, respectively. Fluorescence was proportional to the cellular metabolic activity in each well. Survival percentage was defined as the fluorescence in experimental wells as compared to that in control wells after subtraction of blank values. Each experiment was carried out three times in triplicate. IC50 results were expressed as means ± standard deviation. […]
A general note: Resazurin is reduced to fluorescent resorufin, in cell work by metabolically active cells.

The next data set concerns sheep blood erythrocytes. Briefly: Hemolytic activity. The data set is classed as cell-based. The note with it: sheep blood erythrocytes; 1 h, 37 °C; max tested 200 μM. Here is the method:
Owing to their surfactant properties, glycolipids can break the membrane of red blood cells causing hemolytic activity.[18] To understand if the cytotoxicity of macrolactones 1, 4, 5β, and 6β was due to their surface tension activity, we evaluated the hemolytic potential of synthetic glycolipids 1–6 against sheep erythrocytes (Table 5). […] The non-cytotoxic rhamnolipid 3 was also found to exert a weak hemolytic activity (HC50 = 65 ± 6 μM). […]
Hemolytic Activity. The hemolytic activity of the synthetic surfactants was evaluated as previously described with small modifications.10 Defibrinated sheep blood (Oxoid) was centri fuged at 1000 × g for 5 min. The pellet containing erythrocytes was washed once and suspended in 1X PBS to obtain a 1% erythrocytes suspension. All samples were suspended in DMSO/PBS (5:1 v/v) and serially diluted in a 96 -well plate to obtain a range of co ncentrations from 1 mM to 7.8 µM.
The erythrocytes suspension (160 µL) was added to 40 µL of samples to obtain final concentrations […]
ranging between 200 µM and 1.56 µM. Triton X-100 was used as a positive hemolysis control.
The plate was then incubated at 37 °C with agitation at 150 rpm for 1 h and centrifuged at 1500 × g for 5 min. The supernatant was transferred in an empty plate and absorbance was measured at 540 nm using a Cytation3 microplate reader (Biotek). HC50 was calculated in comparison with the positive control. The experiment was performed in triplicate and repeated three times. […]

Data set [2] in a line: Cytotoxicity, resazurin assay. It is filed as cell-based, human. To be noted: human, max tested 200 μM. On the procedure: as §1, §2, §3, §4, §5
For another data set, the system named is tomato leaf disks. The data set is described as follows: Extracellular ROS production, luminol chemiluminescence. It is filed as cell-based, Solanum lycopersicum. The note with it: 100 μM, monitored over 720 min. The text has this: Bacterial rhamnolipids, such as compound 3, trigger the plant immune system, which can ultimately lead to plant protection against diseases caused by fungal and bacterial pathogens.[23] As ananatoside A (1) and ananatoside B (2) share structural similarities with rhamnolipid 3 and because they have been isolated from P. ananatis cultures, an emerging plant pathogen causing important agricultural damage worldwide,[81] we wanted to investigate whether these bacterial glycolipids, along with our unprecedented series of synthetic rhamnolactones, could be perceived by the plant immune system. We relied on measuring the extracellular content of reactive oxygen species (ROS) produced by tomato plants (Solanum lycopersicum) following treatment with the synthetic compounds, as an early and important marker of plant immunity.[20,22,82] Tomato leaves were challenged with synthetic glycolipids 1–6 at concentrations of 100 μM and the production of ROS was monitored over a 720 min time frame (Fig. 5).
Fig. 5 Extracellular reactive oxygen species (ROS) production following treatment of tomato leaf disks with ananatoside A (1), ananatoside B (2), RhaC10C10 (3), and related macrodilactone-containing rhamnolipids (4–6). Production of ROS was measured in tomato leaf disks following treatment at 100 μM with synthetic glycolipids (1–6). MeOH (0.5%) was used as a control. ROS production was measured using the chemiluminescence of luminol and photon counts were expressed as relative luminescence units (RLUs). Data are mean ± SEM (n = 6). Experiments were independently realized three times with similar results. […]
Plant Material and Growth Conditions. Tomato plants (Solanum lycopersicum L var. Ailsa craig, Scotland) were grown on soil in growth chamber with white fluorescent light [200 μmol•(m−2 s−1)], under 16 h/8 h light/dark regime, 60% relative humidity , and a temperature of 24 /20 °C during four weeks prior treatment. Arabidopsis thaliana plants (ecotype Col -0) were grown on soil in growth chambers with white fluorescent light (150 μmol m−2 s−1), under 12 h/12 h light/dark regime, 60% relative humidity, and a temperature of 20/20 °C during six weeks prior treatment.
Reactive Oxygen Species (ROS) Production. ROS assays were performed on four-week old tomato plants or six-week old Arabidopsis plants. Briefly, tomato leaf disks of 6 mm diameter or Arabidopsis petiole sections of 5 mm long were cut and placed in a 96-well plate (Optiplate TM-96 white, PerkinElmer) containing 150 µL of distilled H2O and then incubated at rt for 24 h to reduce the wounding response.11 The elicitation solution containing 0.2 µg•mL−1 luminol (A4685-5 g, Sigma), […] (P6782, Sigma) and the tested glycolipids (1, 2, 3, 4, 5α, 5β, 6α or 6β) at 100 μM was prepared. Methanol (0.5%) was used as negative control. Prior elicitation, the incubating distilled H2O was carefully removed from each well, avoiding any tissue damage or desiccation. Then, the elicitation solution (150 µL) was quickly added to each well containing a leaf disk or a petiole. Luminescence (relative light units, RLU) was measured every 4

Data set [3] in a line: Emulsifying activity against hydrocarbon contaminants. To be noted: cyclohexane and kerosene. The data set is classed as physicochemical. On the procedure: Therefore, the emulsifying properties of microbial biosurfactants 1–3 were evaluated against light as well as heavy hydrocarbon contaminants such as cyclohexane and kerosene, respectively (see Fig. S7 ^†).
Setting [4] is: DLD-1 colorectal adenocarcinoma cells.

Marks after values point to notes of the source that are not given here. A value given as a limit tells only on which side of the number the result lay.

For `CCCCCCC[C@@H]1CC(=O)OC[C@H]2O[C@@H](O[C@H](CCCCCCC)CC(=O)O1)[C@H](O)[C@@H](O)[C@@H]2O` [Compound 1, ananatoside A], the IC50 at 48 h in data set [1] is 50 to 58 µM; in data set [2] (A549 lung carcinoma cells), 50 ± 7 µM; in data set [2] (setting [4]), 58 ± 2 µM; in data set [2] (WS1 normal skin fibroblasts), 52 ± 4 µM. Moreover, the “Hemolysis (HC50 in μM) Erythrocytes” value in the data set with sheep blood erythrocytes amounted to 12.3 ± 0.3 µM. Also, the “Extracellular ROS production” value with tomato leaf disks is “not”. Moreover, the Emulsifying activity entry in data set [3] is recorded as “unable to form any emulsion”.

Regarding `CCCCCCC[C@H](CC(=O)O)OC(=O)C[C@@H](CCCCCCC)O[C@@H]1O[C@H](CO)[C@@H](O)[C@H](O)[C@H]1O` [Compound 2, ananatoside B], the IC50 at 48 h in data set [1], in data set [2] (A549 lung carcinoma cells), in data set [2] (setting [4]) and in data set [2] (WS1 normal skin fibroblasts) was > 200 µM in each case. The “Hemolysis (HC50 in μM) Erythrocytes” value with sheep blood erythrocytes is >200 ^d μM. Moreover, the “Extracellular ROS production” value in the data set with tomato leaf disks was “less strong in amplitude, a similar pattern of ROS production”. Further, in data set [3], the Emulsifying activity entry is “equally able to generate emulsions with cyclohexane and kerosene”.

For orientation: IC50 means the concentration at which inhibition is half-maximal.
